Assay results as given in PubChem BioAssay AID248 (DTP/NCI, 2004).
“And” between values parts separate entries of the source, which are not always exact repeats. Equal values may be shown once. Inconclusive results and toxic doses are left out. Rule as the data show it: active = T/C of 150% or more; inactive = T/C below 125%.

Tested on: L1210 leukemia ip in BDF1 mice, survival T/C
Assay: NCI In Vivo Anticancer Drug Screen. Data for tumor model L1210 Leukemia (intraperitoneal) in B6D2F1 (BDF1) mice
Conditions: endpoint: mean survival time, higher = longer survival
Method in brief: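 Transplantable tumor model; survival measured in treated vs vehicle control mice. Value = treated/control.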

[1] = dose: 100.0 mg/kg/injection, schedule: Q01DX009 (ip), vehicle: saline with Tween-80
[2] = dose: 200.0 mg/kg/injection, schedule: Q01DX009 (ip), vehicle: saline with Tween-80
[3] = dose: 200.0 mg/kg/injection, schedule: Q04DX003 (ip), vehicle: saline with Tween-80
[4] = dose: 400.0 mg/kg/injection, schedule: Q01DX009 (ip), vehicle: saline with Tween-80
[5] = dose: 400.0 mg/kg/injection, schedule: Q04DX003 (ip), vehicle: saline with Tween-80
[6] = dose: 100.0 mg/kg/injection, schedule: Q01DX001 (ip), vehicle: saline
[7] = dose: 200.0 mg/kg/injection, schedule: Q01DX001 (ip), vehicle: saline
[8] = dose: 400.0 mg/kg/injection, schedule: Q01DX001 (ip), vehicle: saline
[9] = dose: 75.0 mg/kg/injection, schedule: Q01DX001 (ip), vehicle: carboxymethylcellulose (CMC)
[10] = dose: 100.0 mg/kg/injection, schedule: Q01DX009 (ip), vehicle: Klucel (hydroxypropylcellulose) (HPC)
[11] = dose: 100.0 mg/kg/injection, schedule: Q04DX003 (ip), vehicle: Klucel (hydroxypropylcellulose) (HPC)
[12] = dose: 200.0 mg/kg/injection, schedule: Q04DX003 (ip), vehicle: Klucel (hydroxypropylcellulose) (HPC)
[13] = dose: 400.0 mg/kg/injection, schedule: Q04DX003 (ip), vehicle: Klucel (hydroxypropylcellulose) (HPC)
[14] = dose: 50.0 mg/kg/injection, schedule: Q01DX009 (ip), vehicle: Klucel (hydroxypropylcellulose) (HPC)
[15] = dose: 200.0 mg/kg/injection, schedule: Q01DX009 (ip), vehicle: Klucel (hydroxypropylcellulose) (HPC)

Measured: T/C

Nc1cc(S(=O)(=O)O)cc2cc(S(=O)(=O)O)cc(S(=O)(=O)O)c12
inactive: dose: 100.0 mg/kg/injection, schedule: Q01DX009 (ip), vehicle: saline 107 % of control | dose: 200.0 mg/kg/injection, schedule: Q01DX009 (ip), vehicle: saline 104 % of control | dose: 400.0 mg/kg/injection, schedule: Q01DX009 (ip), vehicle: saline 100 % of control

CCCCCCCCC(=O)Nc1nc2c(ncn2C2OC(COC(C)=O)C(OC(C)=O)C2OC(C)=O)c(=O)[nH]1 (stereo unspecified)
inactive: dose: 100.0 mg/kg/injection, schedule: Q01DX005 (ip), vehicle: saline 92 % of control and 97 % of control | dose: 200.0 mg/kg/injection, schedule: Q01DX005 (ip), vehicle: saline 111 % of control and 97 % of control

CC(C)C1=CC2=CCC3C(C)(C(N)=O)CCCC3(C)C2CC1CC#N (stereo unspecified)
inactive: [1] 93 % of control | [2] 93 % of control | [3] 91 % of control | [4] 94 % of control | [5] 93 % of control

Cc1ccccc1OS(=O)(=O)c1cccc([N+](=O)[O-])c1
inactive: [1] 93 % of control | [2] 92 % of control | [4] 90 % of control

CCOC(=O)c1c(C)c(C(=O)CC)c(C)n1C(=O)c1ccccc1
inactive: [6] 100 % of control | [7] 102 % of control | [8] 96 % of control

CCN1CCC(c2ccccc2)(c2ccccc2)C1=N
inactive: [9] 89 % of control

CCCCN1CSC(=S)N(CCCC)C1
inactive: dose: 100.0 mg/kg/injection, schedule: Q04DX002 (ip), vehicle: saline with Tween-80 100 % of control | dose: 200.0 mg/kg/injection, schedule: Q04DX002 (ip), vehicle: saline with Tween-80 93 % of control | dose: 400.0 mg/kg/injection, schedule: Q04DX002 (ip), vehicle: saline with Tween-80 105 % of control

O=C(/C=C/c1cccc([N+](=O)[O-])c1)Nc1cccnc1
inactive: dose: 100.0 mg/kg/injection, schedule: Q01DX009 (ip), vehicle: gum acacia 90 % of control | dose: 200.0 mg/kg/injection, schedule: Q01DX009 (ip), vehicle: gum acacia 96 % of control | dose: 400.0 mg/kg/injection, schedule: Q01DX009 (ip), vehicle: gum acacia 94 % of control

O=C(O)CNc1cccc([N+](=O)[O-])c1
inactive: dose: 65.0 mg/kg/injection, schedule: Q01DX009 (ip), vehicle: Klucel (hydroxypropylcellulose) (HPC) 100 % of control | [10] 100 % of control | [11] 98 % of control | dose: 150.0 mg/kg/injection, schedule: Q01DX009 (ip), vehicle: Klucel (hydroxypropylcellulose) (HPC) 94 % of control | [12] 93 % of control | [13] 101 % of control

COc1cc(CCl)c(CCl)c(OC)c1OC
inactive: [9] 96 % of control | dose: 150.0 mg/kg/injection, schedule: Q01DX001 (ip), vehicle: carboxymethylcellulose (CMC) 95 % of control | dose: 300.0 mg/kg/injection, schedule: Q01DX001 (ip), vehicle: carboxymethylcellulose (CMC) 93 % of control

CCOc1ccc(-n2c(=O)c(N=Nc3ccc(Br)cc3)c(O)n(-c3ccc(C)cc3)c2=S)cc1
inactive: dose: 50.0 mg/kg/injection, schedule: Q01DX001 (ip), vehicle: Klucel (hydroxypropylcellulose) (HPC) 95 % of control | dose: 100.0 mg/kg/injection, schedule: Q01DX001 (ip), vehicle: Klucel (hydroxypropylcellulose) (HPC) 101 % of control | dose: 200.0 mg/kg/injection, schedule: Q01DX001 (ip), vehicle: Klucel (hydroxypropylcellulose) (HPC) 101 % of control

Cc1ccc(C)c2c3c(sc12)CCCC3
inactive: dose: 100.0 mg/kg/injection, schedule: Q01DX001 (ip), vehicle: carboxymethylcellulose (CMC) 95 % of control | dose: 200.0 mg/kg/injection, schedule: Q01DX001 (ip), vehicle: carboxymethylcellulose (CMC) 90 % of control | dose: 400.0 mg/kg/injection, schedule: Q01DX001 (ip), vehicle: carboxymethylcellulose (CMC) 101 % of control

CC1CCC(C(C)C)C(N(C)Cc2cc(Br)cc(Br)c2O)C1 (stereo unspecified)
inactive: [14] 102 % of control | [10] 107 % of control | dose: 100.0 mg/kg/injection, schedule: Q04DX003 (ip), vehicle: saline with Tween-80 104 % of control | [15] 105 % of control | [3] 104 % of control | [5] 98 % of control

CCCCCCCCCC(=O)OCCN1CCN(CCCN2c3ccccc3Sc3ccc(C(F)(F)F)cc32)CC1
inactive: dose: 1.56 mg/kg/injection, schedule: Q01DX009 (ip), vehicle: alcohol 107 % of control | dose: 25.0 mg/kg/injection, schedule: Q04DX003 (ip), vehicle: saline with Tween-80 106 % of control

Cc1cc(C)c(NC(=O)Nc2cccc(Cl)c2)c(C)c1
inactive: [10] 100 % of control | [11] 101 % of control | [15] 105 % of control | [12] 94 % of control | [13] 89 % of control

CCOC(=O)CCN(Cc1ccccc1)C(COC)C(=O)OCC (stereo unspecified)
inactive: [6] 97 % of control | [7] 90 % of control | [8] 101 % of control

Nc1cc(SC(c2ccccc2)c2ccccc2)c([N+](=O)[O-])c(N)n1
inactive: dose: 100.0 mg/kg/injection, schedule: Q01DX001 (ip), vehicle: saline with Tween-80 92 % of control | dose: 200.0 mg/kg/injection, schedule: Q01DX001 (ip), vehicle: saline with Tween-80 101 % of control | dose: 400.0 mg/kg/injection, schedule: Q01DX001 (ip), vehicle: saline with Tween-80 95 % of control

O=C1NC(=O)C2(CCCCC2)N1
inactive: dose: 6.25 mg/kg/injection, schedule: Q04DX003 (ip), vehicle: Klucel (hydroxypropylcellulose) (HPC) 94 % of control | dose: 12.5 mg/kg/injection, schedule: Q01DX009 (ip), vehicle: Klucel (hydroxypropylcellulose) (HPC) 95 % of control | dose: 12.5 mg/kg/injection, schedule: Q04DX003 (ip), vehicle: Klucel (hydroxypropylcellulose) (HPC) 94 % of control | dose: 25.0 mg/kg/injection, schedule: Q01DX009 (ip), vehicle: Klucel (hydroxypropylcellulose) (HPC) 96 % of control | dose: 25.0 mg/kg/injection, schedule: Q04DX003 (ip), vehicle: Klucel (hydroxypropylcellulose) (HPC) 87 % of control and 97 % of control | [14] 100 % of control | dose: 50.0 mg/kg/injection, schedule: Q04DX003 (ip), vehicle: Klucel (hydroxypropylcellulose) (HPC) 96 % of control and 101 % of control | dose: 75.0 mg/kg/injection, schedule: Q01DX009 (ip), vehicle: Klucel (hydroxypropylcellulose) (HPC) 102 % of control

c1ccc(CCCCc2ccccn2)cc1
inactive: [10] 105 % of control | [11] 101 % of control | [15] 105 % of control | [12] 105 % of control | dose: 400.0 mg/kg/injection, schedule: Q01DX009 (ip), vehicle: Klucel (hydroxypropylcellulose) (HPC) 97 % of control | [13] 94 % of control

Oc1cccc[c]1[Hg][Cl]
inactive: dose: 1.0 mg/kg/injection, schedule: Q01DX009 (ip), vehicle: Klucel (hydroxypropylcellulose) (HPC) 98 % of control | dose: 1.0 mg/kg/injection, schedule: Q04DX003 (ip), vehicle: saline 98 % of control | dose: 3.0 mg/kg/injection, schedule: Q01DX009 (ip), vehicle: Klucel (hydroxypropylcellulose) (HPC) 89 % of control | dose: 3.0 mg/kg/injection, schedule: Q04DX003 (ip), vehicle: saline 94 % of control | dose: 6.0 mg/kg/injection, schedule: Q01DX009 (ip), vehicle: Klucel (hydroxypropylcellulose) (HPC) 94 % of control and 91 % of control
